Measurements reported in PubChem BioAssay (NCI).
Values joined by “and” are separate entries in the source; they are usually repeats but may differ in a detail not shown here. Equal entries are not always repeated.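 1) Cells in 96-well plates. 2) Compound, 48 h, 5 concentrations. 3) Linear interpolation between surrounding doses. 4) Unreached endpoint = highest concentration. The concentration for 50% growth inhibition is given as GI50. TGI marks complete inhibition of growth.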

Experiments:
Assay in all cases: inhibition of tumour cell growth, NCI panel, 48 h
ACHN renal = tested on: ACHN renal
HL-60(TB) leukemia = tested on: HL-60(TB) leukemia
HOP-62 NSCLC = tested on: HOP-62 NSCLC
IGROV1 ovarian = tested on: IGROV1 ovarian
OVCAR-8 ovarian = tested on: OVCAR-8 ovarian
SK-MEL-2 melanoma = tested on: SK-MEL-2 melanoma
SK-MEL-28 melanoma = tested on: SK-MEL-28 melanoma
SK-MEL-5 melanoma = tested on: SK-MEL-5 melanoma
UO-31 renal = tested on: UO-31 renal
SF-295 CNS = tested on: SF-295 CNS
SK-OV-3 ovarian = tested on: SK-OV-3 ovarian

| Compound | TGI (ACHN renal) [µM] | TGI (HL-60(TB) leukemia) [µM] | TGI (HOP-62 NSCLC) [µM] | TGI (IGROV1 ovarian) [µM] | TGI (OVCAR-8 ovarian) | TGI (SK-MEL-2 melanoma) | TGI (SK-MEL-28 melanoma) | TGI (SK-MEL-5 melanoma) | TGI (UO-31 renal) [µM] | TGI (SF-295 CNS) | TGI (SK-OV-3 ovarian) | GI50 (ACHN renal) [µM] | GI50 (HL-60(TB) leukemia) [µM] | GI50 (HOP-62 NSCLC) [µM] | GI50 (IGROV1 ovarian) [µM] | GI50 (SF-295 CNS) [µM] | GI50 (SK-MEL-2 melanoma) [µM] | GI50 (SK-MEL-28 melanoma) [µM] | GI50 (SK-MEL-5 melanoma) [µM] | GI50 (UO-31 renal) [µM] |
| --- | --- | --- | --- | --- | --- | --- | --- | --- | --- | --- | --- | --- | --- | --- | --- | --- | --- | --- | --- | --- |
| C=CCn1c(=O)c(Br)nn(CCOCP(=O)(OCC)OCC)c1=O | > 100 | > 100 | > 100 | > 100 | > 100 µM | > 100 µM | > 100 µM | > 100 µM | > 100 |  |  |  |  |  |  |  |  |  |  |  |
| Nc1nc(SCCNC(=O)CCc2ccc(O)c(I)c2)nc2c1ncn2C1OC(CO)C(O)C1O (stereo not drawn) | > 100 | > 100 | > 100 | > 100 | > 100 µM | > 100 µM | > 100 µM | > 100 µM |  | > 100 µM | > 100 µM |  |  |  |  |  |  |  |  |  |
| CC(=O)OCC1=CC2OC(=O)C3=COC(OC4OC(CO)C(O)C(O)C4O)C1C32 (stereo not drawn) | > 100 | > 100 | > 100 | > 100 | > 100 µM | > 100 µM | > 100 µM | > 100 µM | > 100 | > 100 µM | > 100 µM |  |  |  |  |  |  |  |  |  |
| N#Cc1ccc([N+](=O)[O-])cc1NC(N)=S |  |  | > 100 | > 100 | > 100 µM | > 100 µM | > 100 µM | > 100 µM | > 100 | > 100 µM | > 100 µM |  |  |  |  |  |  |  |  |  |
| CC[C@@]1(O)C[C@H](OC2CC(N(C)C)C(OC3CC(O)C(OC4CCC(=O)C(C)O4)C(C)O3)C(C)O2)c2c(cc3c(c2O)C(=O)c2c(O)cccc2C3=O)C1C(=O)OC (stereo partly drawn) | 2.15 |  | 1.58 |  | 0.679 µM and 4.49 µM | 0.0581 µM and 0.425 µM | 0.215 µM and 0.806 µM | 0.189 µM and 0.478 µM |  | 1.1 µM and 1.89 µM | 6 µM and 12.7 µM |  |  |  |  |  |  |  |  |  |
| CC(C)CNCCc1ccccn1 | > 100 | > 100 | > 100 | > 100 | > 100 µM | > 100 µM | > 100 µM | > 100 µM | > 100 | > 100 µM | > 100 µM |  |  |  |  |  |  |  |  |  |
| O=c1oc2cc(O)ccc2c2oc3cc(O)ccc3c12 |  | > 125 | 54.1 | > 125 | > 125 µM | > 125 µM | > 125 µM | 69.9 µM | > 117 | > 125 µM | 70.8 µM |  |  |  |  |  |  |  |  |  |
| CC1=C(SCCO)C(=O)c2ccccc2C1=O | 13 | > 100 | 29.4 | 27.3 | 28.6 µM | 24.5 µM | 25.9 µM | 26.6 µM | 20.3 | 32.8 µM | 29.6 µM |  |  |  |  |  |  |  |  |  |
| CC(C)C1=CC2=CC[C@@H]3[C@](C)(CCC[C@@]3(C)C(=O)O)[C@H]2CC1 | > 100 | > 88.3 | > 100 | > 100 | > 100 µM | > 78.9 µM | > 100 µM | > 94.2 µM | > 82.7 | > 100 µM | > 100 µM |  |  |  |  |  |  |  |  |  |
| COc1cc2c3c(n(CCCn4cncn4)c(=O)c2cc1OC)-c1cc2c(cc1C3=O)OCO2 | 2.56 | 1.16 | 59 | > 100 | > 100 µM | > 100 µM | > 100 µM | 31 µM | > 100 | > 100 µM |  | < 0.01 | < 0.0131 | < 0.0283 | 10.9 | < 0.01 | > 100 | > 100 | 0.671 | 0.0913 |
| C1=CC=C2NCCc3cccc(c3)CCNC3=CC=CC=CC3=NCCCCCCN=C2C=C1 | > 100 | 20.9 | 34.4 | > 100 | 61.6 µM | 79.8 µM |  |  | 89.1 | 49.6 µM | 70.6 µM |  |  |  |  |  |  |  |  |  |
| CCCCC(=O)c1c(O)ccc2c(C)cc(=O)oc12 | > 100 | > 100 | > 100 | > 100 | > 100 µM | > 100 µM | > 100 µM | > 100 µM | > 100 | > 100 µM |  |  |  |  |  |  |  |  |  |  |
| CC(=O)OCCCCN1C(=O)CSc2ccccc21 | > 100 | > 100 | > 100 | > 100 |  | > 100 µM | > 100 µM | > 100 µM | > 100 | > 100 µM | > 100 µM |  |  |  |  |  |  |  |  |  |
| O=C1CCCCN1 |  | > 1120 | > 1120 | > 1120 | > 1120 µM | > 1120 µM | > 1120 µM | > 1120 µM | > 1120 | > 1120 µM | > 1120 µM |  |  |  |  |  |  |  |  |  |
| O=Cc1ccccc1CCn1c(=O)c2cc3c(=O)n(CCc4ccccc4C=O)c(=O)c3cc2c1=O | > 100 | > 100 |  | > 100 | > 100 µM | > 100 µM | > 100 µM | > 100 µM | > 100 | > 100 µM | > 100 µM |  |  |  |  |  |  |  |  |  |
